{"source": "patent US6849416B2", "about": "“Monoclonal antibody” (priority 2001, dated 2005)", "key": {"[1]": {"experiment": "Aβ IPG 2D-PAGE of synthetic Aβ peptides (isoelectric point)", "format": "physicochemical", "details": "IPG pH 4-7", "method": "The samples are taken up in IPG-SB (table 5a). Dry substance and Dynabeads magnetically immobilized by means of MSP (see below) are taken up directly with the IPG-SB immediately before IEF and incubated in an ultrasonic bath at 37° C. for 10 min. Taking up of liquid biological samples: after removal of the mixed bed ion exchanger (Serdolit MB-1), the IPB-SB is divided into aliquots (e.g. 100 μl) in Eppendorf sample vessels and concentrated to the dry substance at room temperature using a SpeedVac. The IPG-SB introduced as dry substance is taken up with sample with the ratio 1:1 by volume (e.g. 100 μl) and, after a vortex step (1 min.), incubated in an ultrasonic bath at 37° C. for 10 min.\nThe IEF using commercial IPG “[…]” took place in accordance with the manufacturer's protocol (Amersham Pharmacia Biotech/brief instructions 71-5009-57, edition AA, 99-04). IPG “[…]” (4-7, linear pH gradient, length 7 cm) were rehydrogenated to a gel thickness of 0.5 mm using the rehydrogenation solution from table 5a at room temperature overnight. The sample loading device (“sample cups”) is placed on the basic side of the IPG strips, at about pH 6.5 (cathodic loading) and 30 μl of sample is loaded. The IPG-IEF takes place for 30 min/300V, 30 min/800V, 30 min./1400V and 5 h/2000V ([…]).\nThe IPG-IEF is followed by equilibration of the “[…]” for 2×10 min. (table 5b). The first equilibration solution contains DTT (50 mg/5 ml), the second solution iodoacetamide (240 mg/5 ml) for neutralization of excess DTT, which otherwise leads to color artefacts on silver staining of the gels. The second equilibration step is unnecessary for the Western immunoblot. The equilibrated IPG “[…]” are fixed on the stacking gel of the Aβ SDS-PAGE using agarose solution (table 5c). A sample well for loading synthetic Aβ peptides or Mr marker proteins for comparison is made in the hot agarose using a Teflon tooth. The electrophoresis takesplace in accordance with 3.1.2."}, "[2]": {"experiment": "Cryoprecipitation of synthetic peptide dissolved in water", "format": "physicochemical", "details": "dissolved with comparable concentration in water, freezing", "source_text": "This makes it probable that the reduction caused by cryoprecipitation in Aβ1-42 in human CSF derives predominantly from the aggregate-bound proportion of the peptide. In the case of comparatively hydrophobic aggregates—for example lipoprotein-containing complexes—a loss through cryoprecipitation would not be surprising. In this connection, it is shown hereinafter (4.2.4) that ε4-positive patients in the NDC-3CP group show a particularly high rate of CP-related reduction in Aβ1-42 and have CSF levels which are approximately as low as ε4-positive AD-3CP patients."}, "[3]": {"tested_on": "human APP751Sw transgenic H4 neuroglioma cell line (released Aβ peptides)", "experiment": "Treatment of APP751Sw transgenic H4 neuroglioma cells with protease inhibitors, Aβ peptides released into supernatant", "format": "cell-based", "details": "for Aβ1-40, Aβ1-42, Aβ1-37/38/39 and Aβ2-42 released into cell culture supernatant: versus DMSO control", "method": "FIG. 27: two Aβ SDS-PAGE/immunoblots 2 which show a treatment of a human 751APPSw trangenic H4 neuroglioma cell line with various protease inhibitors (23a) and a dose-dependent effect of calpain inhibitor 1 (23b). The released Aβ peptides were quantified in 4 μl of SDS/thermally denatured cell culture supernatants in each case (cf. FIGS. 23a,b). For comparison, the sAPPα concentration in the cell culture supernatants was determined.\nIn panel a: (1) is DMSO control; (2) is 50 μM calpain inhibitor 1; (3) is 100 μM calpain inhibitor 3; (4) is 5 μM MG132; (5) is 25 μM calpeptin; (a-d) is mix of synthetic Aβ peptides.\nThe released Aβ peptides were quantified in 4 μl of SDS/thermally denatured cell culture supernatants in each case. The dose-dependent effect of calpain inhibitor 1 on the Aβ peptide concentration in the supernatant was investigated, comparing with the DMSO control.\nThe released Aβ peptides were quantified in 4 μl of SDS/thermally denatured cell culture supernatants in each case. The dose-dependent effect of calpain inhibitor 1 on the proportion of an Aβ peptide species as a percentage of the total Aβ peptide concentration was investigated, comparing with the DMSO control.\nIf the samples are in liquid form (e.g. cell culture supernatants, cell homogenates) and if the Aβ peptide concentration is sufficiently high it is possible to take up one volume unit of sample with one volume unit of the double concentrated SDS-SB-2 (table 3).\nA comparative investigation was carried out on the Aβ peptide pattern in neuroglioma cells (H4) which have been transfected with humanAPP751Sw. […] Aβ2-42 can also be indentified. After treatment with inhibitors of β/γ-secretases (calpain inhibitor I&II, calpeptin, MG132, leupeptin), besides Aβ1-40 and Aβ1-42 there is also a reduction in the C-terminally truncated Aβ peptides 1-37/38/39 and the N-terminally truncated Aβ2-42 (FIGS. 28a,b)."}}, "note": "Where a SMILES comes first, the peptide text is derived from it. [ ]: non-standard residue; d: D form. The star is where a group is joined. Nle = CCCC[C@H](N)C(=O)O; Cbz = O=C(OCc1ccccc1)*"}
{"molecule": "Aβ1-42: synthetic β-amyloid peptide 1-42 (Bachem)", "values": [{"measurement": "isoelectric point", "setting": "[1]", "result": 5.37}, {"measurement": "cryoprecipitation compared with Aβ1-42 in human CSF", "setting": "[2]", "result": "distinctly less cryoprecipitation"}]}
{"molecule": "CCCC[C@@H](C=O)NC(=O)[C@H](CC(C)C)NC(=O)[C@H](CC(C)C)NC(C)=O", "note": "[calpain inhibitor 1] (Ac-Leu-Leu-[Nle]-aldehyde)", "values": [{"measurement": "Aβ1-42 concentration at low concentration of the protease inhibitor", "setting": "[3]; low inhibitor concentration", "result": "initial (paradoxical) increase"}, {"measurement": "Aβ2-42 concentration in relation to the increase in Aβ1-42", "setting": "[3]; low inhibitor concentration", "result": "did not correlate with an increase"}, {"measurement": "Aβ1-40, Aβ1-42, Aβ1-37/38/39 and Aβ2-42 released into cell culture supernatant", "setting": "[3]", "result": "dose-dependent reduction"}, {"measurement": "Aβ1-40, Aβ1-42, Aβ1-37/38/39 and Aβ2-42 released into cell culture supernatant", "setting": "[3]; listed as calpain inhibitor I", "result": "reduction"}]}
{"molecule": "CC(=O)N[C@@H](CC(C)C)C(=O)N[C@@H](CC(C)C)C(=O)N[C@H](C=O)CCCNC(=N)N", "note": "[leupeptin]", "values": [{"measurement": "Aβ1-40, Aβ1-42, Aβ1-37/38/39 and Aβ2-42 released into cell culture supernatant", "setting": "[3]", "result": "reduction"}]}
{"molecule": "CCCC[C@@H](C=O)NC(=O)[C@H](CC(C)C)NC(=O)OCc1ccccc1", "note": "[calpeptin]", "values": [{"measurement": "Aβ1-40, Aβ1-42, Aβ1-37/38/39 and Aβ2-42 released into cell culture supernatant", "setting": "[3]", "result": "reduction"}]}
{"molecule": "CC(C)C[C@@H](C=O)NC(=O)[C@H](CC(C)C)NC(=O)[C@H](CC(C)C)NC(=O)OCc1ccccc1", "note": "[MG132] (Cbz-Leu-Leu-Leu-aldehyde)", "values": [{"measurement": "Aβ1-40, Aβ1-42, Aβ1-37/38/39 and Aβ2-42 released into cell culture supernatant", "setting": "[3]", "result": "reduction"}]}
{"molecule": "Aβ2-40: synthetic β-amyloid peptide 2-40, lacking N-terminal aspartate", "values": [{"measurement": "isoelectric point", "setting": "[1]", "result": 6.37}]}
{"molecule": "Aβ3-40: synthetic β-amyloid peptide 3-40", "values": [{"measurement": "isoelectric point", "setting": "[1]", "result": 6.37}]}
{"molecule": "CSCC[C@@H](C=O)NC(=O)[C@H](CC(C)C)NC(=O)[C@H](CC(C)C)NC(C)=O", "note": "[calpain inhibitor II] (Ac-Leu-Leu-Met-aldehyde)", "values": [{"measurement": "Aβ1-40, Aβ1-42, Aβ1-37/38/39 and Aβ2-42 released into cell culture supernatant", "setting": "[3]", "result": "reduction"}]}
